Test results published in patent US20100226992A1 (ALCON RESEARCH, LTD., priority 2009, published 2010).

System: FGFR
Assay: Kinase inhibition, cell-free enzymatic assay
Format: biochemical
Settings: 1 mM ATP

Work on Cc1ccc(F)c(NC(=O)Nc2ccc(-c3cccc4[nH]nc(N)c34)cc2)c1 [RTK Inhibitor, N-[4-(3-amino-1H-indazol-4-yl)phenyl]-N′-(2-fluoro-5-methylphenyl)urea] yielded an IC50 of over 12.5 µM.
